Data: PubChem BioAssay AID330 (DTP/NCI, 2004)
Where “and” joins values, the source holds several entries; their conditions need not be identical. Identical values can stand only once. Toxic doses and inconclusive results are not listed. How the source made its calls: active means survival T/C of 150% or more; inactive means T/C below 125% in these data.

Test system: P388 leukemia ip, CD2F1 mice, survival T/C
Assay: NCI In Vivo Anticancer Drug Screen. Data for tumor model P388 Leukemia (intraperitoneal) in CD2F1 (CDF1) mice
Conditions: endpoint: median survival time, higher = longer survival
Method in brief: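 Mice carrying the transplanted tumor received test compound or vehicle. Survival was recorded in each group, and the value is the treated-group measurement divided by that of the vehicle-treated control group.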

[1] = dose: 60.0 mg/kg/injection, schedule: Q01DX005 (ip), vehicle: saline
[2] = dose: 120.0 mg/kg/injection, schedule: Q01DX005 (ip), vehicle: saline
[3] = dose: 240.0 mg/kg/injection, schedule: Q01DX005 (ip), vehicle: saline
[4] = dose: 25.0 mg/kg/injection, schedule: Q01DX009 (ip), vehicle: Klucel (hydroxypropylcellulose) (HPC)
[5] = dose: 60.0 mg/kg/injection, schedule: Q01DX005 (ip), vehicle: Klucel (hydroxypropylcellulose) (HPC)
[6] = dose: 120.0 mg/kg/injection, schedule: Q01DX005 (ip), vehicle: Klucel (hydroxypropylcellulose) (HPC)
[7] = dose: 240.0 mg/kg/injection, schedule: Q01DX005 (ip), vehicle: Klucel (hydroxypropylcellulose) (HPC)
[8] = dose: 25.0 mg/kg/injection, schedule: Q01DX009 (ip), vehicle: saline with Tween-80
[9] = dose: 50.0 mg/kg/injection, schedule: Q01DX009 (ip), vehicle: Klucel (hydroxypropylcellulose) (HPC)
[10] = dose: 100.0 mg/kg/injection, schedule: Q01DX009 (ip), vehicle: Klucel (hydroxypropylcellulose) (HPC)
[11] = dose: 200.0 mg/kg/injection, schedule: Q01DX009 (ip), vehicle: Klucel (hydroxypropylcellulose) (HPC)
[12] = dose: 50.0 mg/kg/injection, schedule: Q01DX009 (ip), vehicle: saline with Tween-80
[13] = dose: 100.0 mg/kg/injection, schedule: Q01DX009 (ip), vehicle: saline with Tween-80
[14] = dose: 200.0 mg/kg/injection, schedule: Q01DX009 (ip), vehicle: saline with Tween-80
[15] = dose: 25.0 mg/kg/injection, schedule: Q01DX005 (ip), vehicle: Klucel (hydroxypropylcellulose) (HPC)
[16] = dose: 50.0 mg/kg/injection, schedule: Q01DX005 (ip), vehicle: Klucel (hydroxypropylcellulose) (HPC)
[17] = dose: 100.0 mg/kg/injection, schedule: Q01DX005 (ip), vehicle: Klucel (hydroxypropylcellulose) (HPC)
[18] = dose: 200.0 mg/kg/injection, schedule: Q01DX005 (ip), vehicle: Klucel (hydroxypropylcellulose) (HPC)
[19] = dose: 50.0 mg/kg/injection, schedule: Q01DX005 (ip), vehicle: saline with Tween-80
[20] = dose: 100.0 mg/kg/injection, schedule: Q01DX005 (ip), vehicle: saline with Tween-80
[21] = dose: 200.0 mg/kg/injection, schedule: Q01DX005 (ip), vehicle: saline with Tween-80

Measured: T/C

CCOC(=O)/C=C/CC1CCNC1 (configuration not stated)
inactive: [1] 100 % of control | [2] 100 % of control | [3] 106 % of control

CCCCCC1=C/N\C(C#N)=C(C#N)/N=C/C(CCCCC)=C\N\C(C#N)=C(C#N)/N=C\1
inactive: dose: 6.25 mg/kg/injection, schedule: Q01DX009 (ip), vehicle: Klucel (hydroxypropylcellulose) (HPC) 93 % of control | dose: 12.5 mg/kg/injection, schedule: Q01DX009 (ip), vehicle: Klucel (hydroxypropylcellulose) (HPC) 93 % of control | [4] 93 % of control

CC(=O)Nc1cc(NC(C)=O)cc(C(=O)O)c1
inactive: [5] 90 % of control | [6] 90 % of control | [7] 90 % of control

CCC12CCCN3CCc4c(n(c5ccc(Br)cc45)C(=O)/C(=N\O)C1)C32 (configuration not stated)
inactive: dose: 60.0 mg/kg/injection, schedule: Q01DX005 (ip), vehicle: saline with Tween-80 101 % of control | dose: 120.0 mg/kg/injection, schedule: Q01DX005 (ip), vehicle: saline with Tween-80 97 % of control | dose: 240.0 mg/kg/injection, schedule: Q01DX005 (ip), vehicle: saline with Tween-80 97 % of control

CC1C(=O)OC2C1CCC1(C)CCC(O)C(C)C21 (configuration not stated)
inactive: dose: 100.0 mg/kg/injection, schedule: Q04DX002 (ip), vehicle: saline with Tween-80 102 % of control | dose: 200.0 mg/kg/injection, schedule: Q04DX002 (ip), vehicle: saline with Tween-80 99 % of control | dose: 400.0 mg/kg/injection, schedule: Q04DX002 (ip), vehicle: saline with Tween-80 99 % of control

Clc1ccc(N=Cc2cccs2)cc1
inactive: dose: 3.13 mg/kg/injection, schedule: Q01DX009 (ip), vehicle: saline with Tween-80 100 % of control | dose: 6.25 mg/kg/injection, schedule: Q01DX009 (ip), vehicle: saline with Tween-80 88 % of control | dose: 12.5 mg/kg/injection, schedule: Q01DX009 (ip), vehicle: saline with Tween-80 90 % of control | [8] 101 % of control | [9] 110 % of control | [10] 100 % of control | [11] 100 % of control

C=CC(=NC(C)(C)C)Nc1ccc(Cl)cc1
inactive: [12] 100 % of control | [13] 94 % of control | [14] 97 % of control

O=C1OC2=C(CCCC2)C(N2CCCCC2)C12SCCCS2 (configuration not stated)
inactive: dose: 100.0 mg/kg/injection, schedule: Q04DX003 (ip), vehicle: saline with Tween-80 109 % of control | dose: 200.0 mg/kg/injection, schedule: Q04DX003 (ip), vehicle: saline with Tween-80 103 % of control | dose: 400.0 mg/kg/injection, schedule: Q04DX003 (ip), vehicle: saline with Tween-80 101 % of control

COC(=O)c1ccc(SCCC2(COS(C)(=O)=O)OCCO2)cc1
inactive: [9] 106 % of control | [10] 102 % of control | [11] 96 % of control

CCC1C(C#N)C(=O)NC(=O)C1C#N (configuration not stated)
inactive: [9] 100 % of control | [10] 95 % of control | [11] 95 % of control

Cc1ccc(S(=O)(=O)N/N=C2/C=CC3(CC=CCC3)CC2)cc1 (configuration not stated)
inactive: [9] 109 % of control | [10] 100 % of control | [11] 100 % of control

C=C(C)C1CC2(C)C(C)C(OC(=O)/C(C)=C/C)CCC2C(OC(=O)C=C(C)C)C1=O (configuration not stated)
inactive: dose: 75.0 mg/kg/injection, schedule: Q04DX002 (ip), vehicle: Klucel (hydroxypropylcellulose) (HPC) 99 % of control | dose: 150.0 mg/kg/injection, schedule: Q04DX002 (ip), vehicle: Klucel (hydroxypropylcellulose) (HPC) 98 % of control | dose: 300.0 mg/kg/injection, schedule: Q04DX002 (ip), vehicle: Klucel (hydroxypropylcellulose) (HPC) 106 % of control

COc1ccc(CC2c3cc4c(cc3CCN2C)OCO4)c(C=O)c1OC (configuration not stated)
inactive: dose: 12.5 mg/kg/injection, schedule: Q01DX001 (ip), vehicle: saline + alcohol 93 % of control | dose: 25.0 mg/kg/injection, schedule: Q01DX001 (ip), vehicle: saline + alcohol 97 % of control | dose: 50.0 mg/kg/injection, schedule: Q01DX001 (ip), vehicle: saline + alcohol 99 % of control

COc1cc2oc3cc(OC)c(OC)c(CC=C(C)C)c3c(=O)c2c(O)c1CC=C(C)C
inactive: [15] 87 % of control | [16] 100 % of control | [17] 86 % of control and 97 % of control | [18] 105 % of control

NC(=S)N/N=C/c1ccc2c(c1)OCO2
inactive: [12] 100 % of control | [13] 100 % of control

CO/N=C/c1ccc([N+](=O)[O-])s1
inactive: dose: 12.0 mg/kg/injection, schedule: Q01DX001 (ip), vehicle: other 90 % of control | dose: 25.0 mg/kg/injection, schedule: Q01DX001 (ip), vehicle: other 104 % of control | dose: 50.0 mg/kg/injection, schedule: Q01DX001 (ip), vehicle: other 100 % of control

CC(C)(NC(=O)OCc1ccccc1)C(=O)n1cc(CC(C(=O)OCc2ccccc2)n2cnc3ccccc3c2=O)c2ccccc21 (configuration not stated)
inactive: dose: 8.75 mg/kg/injection, schedule: Q01DX005 (ip), vehicle: Klucel (hydroxypropylcellulose) (HPC) 96 % of control | dose: 17.5 mg/kg/injection, schedule: Q01DX005 (ip), vehicle: Klucel (hydroxypropylcellulose) (HPC) 100 % of control | dose: 35.0 mg/kg/injection, schedule: Q01DX005 (ip), vehicle: Klucel (hydroxypropylcellulose) (HPC) 99 % of control

O=C1c2ccccc2C(=O)N1CN1C(=O)c2ccccc2C1=O
inactive: [8] 95 % of control | [12] 115 % of control and 90 % of control | [13] 90 % of control | [14] 100 % of control

Cc1cc2ccccc2nc1C#N
inactive: [15] 105 % of control | [16] 102 % of control | [17] 101 % of control | [18] 109 % of control

N#C/C(=N\Nc1cccc(C(F)(F)F)c1)C(N)=O
inactive: [16] 103 % of control | [17] 115 % of control

C=C1N=NN(c2ccc(C)cc2)C1N1CCOCC1 (configuration not stated)
inactive: [5] 93 % of control | [6] 99 % of control | [7] 90 % of control

Clc1ccc(-c2noc(/C=C\c3ccccc3)n2)cc1
inactive: [4] 99 % of control and 86 % of control | [9] 98 % of control and 86 % of control | [10] 86 % of control and 97 % of control | [11] 95 % of control

O=c1c2ccccc2oc2nc3cc(Cl)ccc3n12
inactive: [19] 104 % of control | [20] 95 % of control | [21] 98 % of control

CC(C)CCC(NS(=O)(=O)c1cc(I)c(N)c(I)c1)C(=O)O (configuration not stated)
inactive: [19] 99 % of control | [20] 96 % of control | [21] 103 % of control

O=[N+]([O-])c1ccc2c3c(ccc([N+](=O)[O-])c13)CC2
inactive: [4] 93 % of control | [9] 93 % of control | [10] 91 % of control

COC(=O)c1cc(=O)nc(N/N=C/c2ccc3c(c2)OCO3)s1
inactive: dose: 12.5 mg/kg/injection, schedule: Q01DX005 (ip), vehicle: saline with Tween-80 99 % of control | dose: 25.0 mg/kg/injection, schedule: Q01DX005 (ip), vehicle: saline with Tween-80 94 % of control | [19] 94 % of control

CCC(O)C#C[Si](C)(C)C (configuration not stated)
inactive: [1] 97 % of control | [2] 100 % of control | [3] 103 % of control
